The values below come from paper PMC10458862, “Binding Specificity of a Novel Cyclo/Maltodextrin-Binding Protein and Its Role in the Cyclodextrin ABC Importer System from Thermoanaerobacterales” (Molecules, 2023).

The target of one experiment is EcoMBP. The settings on record: cited from earlier work.
Another experiment has as its target TvuCMBP. Also noted: method as in PMID 17371546. The settings on record: ND = not detected; cited from earlier work.
For experiment [1], the target named is T1, MdxE (Thermoanaerobacter mathranii subsp. mathranii, UniProt A0ABM5LRQ5). The experiment is described as follows: ITC measurements of MdxE-ligand binding. Also noted: species or system Thermoanaerobacter mathranii subsp. mathranii A3. The method, then:
To assess the binding affinities of MdxE toward different linear dextrins and CDs for the CM-CD pathway, functional experiments of MdxE-ligand complex formation were performed using isothermal titration calorimetry (ITC) to determine the dissociation constant (Kd) and enthalpy (ΔH) for ligand binding, as well as the Gibbs free energy (ΔG) contribution to the binding (Figure 3).
Purified MdxE at 4 μM was titrated with 0.8 mM CDs and linear dextrins using a VP-ITC calorimeter (Cytiva) at 55 °C. In all measurements, the sample cell and syringe were filled with protein and ligand solution, respectively, and the reference cell was filled with ultrapure water. The stirring speed of the sample syringe during measurements was 250 rpm. After baseline stabilization and an initial injection of 2 µL, 25 successive injections of 11 µL were carried out with a 5 min equilibration period between injections. Since both protein and ligands were in buffer C, the heat of dilution was neglected in the experiments. The resulting data were analyzed in triplicate (n = 3) using the Origin 7 ITC analysis v7.0 software from Microcal by fitting the titration curves to a single binding site model.
For orientation: In ITC the heat of successive injections is recorded.

The next experiment concerns the target AcyMBP. Also noted: method as in PMID 11053372. The note with it: cited from earlier work.
Experiment [2] concerns the target T1, MdxE. The experiment is described as follows: ANS fluorescence determination of protein surface hydrophobicity (Ho) of MdxE-ligand complexes. The arrangement: species or system Thermoanaerobacter mathranii subsp. mathranii A3. The settings on record: for Ho (protein surface hydrophobicity, slope of RFU versus MdxE concentration): MdxE 2–14 µM, 350 µM ligand, 20 µM ANS, λmax = 485 nm, letters = Tukey groups (p < 0.05). The method, then: To evaluate the switching from an open to a closed form of productive MdxE-ligand complexes obtained with the sugars listed in Table 1, changes in the protein surface hydrophobicity (Ho) of MdxE-ligand complexes using the fluorescent probe 8-anilinonaphthalene-1-sulfonate (ANS) were determined (Figure 4).
The changes in H0 associated with the open-to-closed conformational changes of productive MdxE-ligand complexes were determined based on the method described previously, using a Nanodrop ND-3300 fluorospectrometer (Thermo Fisher, Waltham, MA, USA) controlled by ND-3300 v2.8.0 software with ANS as a fluorescence probe at an excitation wavelength of 365 nm and 400–600 nm as the range for emission scan. The fluorescent response was measured in RFU using buffer C for all solutions. […] For H0 measurements, MdxE-ligand complexes were heated at 55 °C for 10 min. Subsequently, ANS was added to form the (MdxE-ligand)-ANS complexes, and the solutions were heated again at 55 °C for 3 min; then, the solutions were cooled to room temperature. Data were analyzed in triplicate (n = 3), and H0 was estimated as the slope of the linear curve fitted for RFU versus MdxE concentrations plotted at the maximum emission wavelength (λ = 485 nm) using the emtrends() function from emmeans package in R [58, 59]. A Tukey’s test (α = 0.05) for multiple comparisons was performed to determine significant differences in H0 between CDs and linear dextrins tested. All fluorescence measurements were made at 22 °C.

The target in the next experiment is CymE. Also noted: method as in PMID 9573146. The note with it: ND = not detected; cited from earlier work.
The mark [3] stands for this setting: ITC, 55 °C, 4 μM MdxE titrated with 0.8 mM ligand, single binding site model, n = 3, ND = not detected, read-out: Kd MdxE.

Where two headings read alike, the source gives them in different places. Marks after values point to notes of the source that are not given here.

T1 sequence (A0ABM5LRQ5 entry or part of it): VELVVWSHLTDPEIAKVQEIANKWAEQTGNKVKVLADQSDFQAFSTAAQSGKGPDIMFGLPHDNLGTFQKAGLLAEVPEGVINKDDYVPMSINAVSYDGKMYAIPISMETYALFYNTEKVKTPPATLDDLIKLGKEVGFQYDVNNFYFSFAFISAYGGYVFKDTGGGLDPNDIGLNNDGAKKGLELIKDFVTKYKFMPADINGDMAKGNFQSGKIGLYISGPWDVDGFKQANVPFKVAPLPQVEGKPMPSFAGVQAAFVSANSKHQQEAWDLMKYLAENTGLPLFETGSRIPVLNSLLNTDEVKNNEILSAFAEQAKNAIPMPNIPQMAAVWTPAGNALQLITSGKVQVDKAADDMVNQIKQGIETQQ

With `OC[C@H]1O[C@H](O[C@H]2[C@H](O)[C@@H](O)C(O)O[C@@H]2CO)[C@H](O)[C@@H](O)[C@@H]1O` (mixture of isomers) [G2, maltose], the figures for the dissociation constant Kd at EcoMBP, at TvuCMBP and on AcyMBP were 1000 nM, 410 nM and 1500 nM, respectively. Besides, the “Kd MdxE” value on MdxE [1] (ITC, 55 °C, 4 μM MdxE titrated with 0.8 mM ligand, single binding site model, n = 3, ND = not detected) is “no binding interaction was observed”. Besides, at MdxE [2], the “Ho (protein surface hydrophobicity, slope of RFU versus MdxE concentration)” value was 15.1 ^d. Further, the “MdxE-ligand complex formation by fluorescence measurements” value at MdxE [2] (fluorescence analysis with ANS) is “no MdxE-G2 complex formation was observed”.
On to `OC[C@H]1O[C@H](O[C@H]2[C@H](O)[C@@H](O)[C@@H](O[C@H]3[C@H](O)[C@@H](O)C(O)O[C@@H]3CO)O[C@@H]2CO)[C@H](O)[C@@H](O)[C@@H]1O` (mixture of isomers) [G3, maltotriose], for which the results for the dissociation constant (Kd) at EcoMBP, at TvuCMBP and on MdxE [1] (setting [3]) were 200 nM, 970 nM and 3020 nM, respectively. The same molecule yielded a ΔG at MdxE [1] (ITC, 55 °C, ND = not detected) of -8.50 kcal/mol. On MdxE [1] (ITC, 55 °C, ND = not detected), this molecule showed a ΔH of -8.64 kcal/mol. Also, the “Ho (protein surface hydrophobicity, slope of RFU versus MdxE concentration)” value on MdxE [2] is 24.3 ^c.
On to `OC[C@H]1O[C@@H]2O[C@H]3[C@H](O)[C@@H](O)[C@@H](O[C@H]4[C@H](O)[C@@H](O)[C@@H](O[C@H]5[C@H](O)[C@@H](O)[C@@H](O[C@H]6[C@H](O)[C@@H](O)[C@@H](O[C@H]7[C@H](O)[C@@H](O)[C@@H](O[C@H]1[C@H](O)[C@H]2O)O[C@@H]7CO)O[C@@H]6CO)O[C@@H]5CO)O[C@@H]4CO)O[C@@H]3CO` [α-CD], for which the Kd (usually the constant that tells how readily two partners part at equilibrium) is 730 nM at TvuCMBP, 610 nM at MdxE [1] and 20 nM on CymE. The molecule further showed a ΔH on MdxE [1] (ITC, 55 °C, ND = not detected) of -6.83 kcal/mol. Further, the “Ho (protein surface hydrophobicity, slope of RFU versus MdxE concentration)” value on MdxE [2] is listed as 37.1 ^a. The “open-to-closed conformational change of MdxE” value at MdxE [2] (fluorescence analysis with ANS) is listed as “solely triggered”.
As to `OC[C@H]1O[C@@H]2O[C@H]3[C@H](O)[C@@H](O)[C@@H](O[C@H]4[C@H](O)[C@@H](O)[C@@H](O[C@H]5[C@H](O)[C@@H](O)[C@@H](O[C@H]6[C@H](O)[C@@H](O)[C@@H](O[C@H]7[C@H](O)[C@@H](O)[C@@H](O[C@H]8[C@H](O)[C@@H](O)[C@@H](O[C@H]1[C@H](O)[C@H]2O)O[C@@H]8CO)O[C@@H]7CO)O[C@@H]6CO)O[C@@H]5CO)O[C@@H]4CO)O[C@@H]3CO` [β-CD], the Kd is 1000 nM on EcoMBP, 1200 nM on TvuCMBP, 2040 nM on MdxE [1] (setting [3]) and 140 nM on CymE. Also, on MdxE [1] (ITC, 55 °C, ND = not detected), the ΔH was -5.28 kcal/mol. Besides, on MdxE [2], the “Ho (protein surface hydrophobicity, slope of RFU versus MdxE concentration)” value is 41.8 ^b. The “open-to-closed conformational change of MdxE” value at MdxE [2] (fluorescence analysis with ANS) was “solely triggered”.
For the molecule `OC[C@H]1O[C@@H]2O[C@H]3[C@H](O)[C@@H](O)[C@@H](O[C@H]4[C@H](O)[C@@H](O)[C@@H](O[C@H]5[C@H](O)[C@@H](O)[C@@H](O[C@H]6[C@H](O)[C@@H](O)[C@@H](O[C@H]7[C@H](O)[C@@H](O)[C@@H](O[C@H]8[C@H](O)[C@@H](O)[C@@H](O[C@H]9[C@H](O)[C@@H](O)[C@@H](O[C@H]1[C@H](O)[C@H]2O)O[C@@H]9CO)O[C@@H]8CO)O[C@@H]7CO)O[C@@H]6CO)O[C@@H]5CO)O[C@@H]4CO)O[C@@H]3CO` [γ-CD], the values for the Kd at TvuCMBP, on MdxE [1] (setting [3]) and on CymE were 230 nM, 1510 nM and 300 nM, respectively. For the same molecule, on MdxE [1] (ITC, 55 °C, ND = not detected), the ΔH was -6.50 kcal/mol. Moreover, the “Ho (protein surface hydrophobicity, slope of RFU versus MdxE concentration)” value at MdxE [2] is recorded as 24.5 ^c.
In the case of maltoheptaose [G7], on MdxE [1] (setting [3]), the dissociation constant Kd is 910 nM. On MdxE [1] (ITC, 55 °C, ND = not detected), this molecule displayed a ΔG of -9.09 kcal/mol and a ΔH of -11.54 kcal/mol. The Kd on CymE was 70000 nM. For the same molecule, the “Ho (protein surface hydrophobicity, slope of RFU versus MdxE concentration)” value on MdxE [2] is 27.1 ^c.
As for maltohexaose [G6], the Kd on MdxE [1] (setting [3]) stood at 1850 nM. At MdxE [1] (ITC, 55 °C, ND = not detected), this molecule displayed a ΔG of -8.61 kcal/mol and a ΔH of -12.98 kcal/mol. Also, the “Ho (protein surface hydrophobicity, slope of RFU versus MdxE concentration)” value on MdxE [2] is listed as 26.8 ^c.
maltopentaose [G5]: the Kd is 200 nM on TvuCMBP and 2440 nM on MdxE [1] (setting [3]). Moreover, the ΔG at MdxE [1] (ITC, 55 °C, ND = not detected) is -8.30 kcal/mol. For the same molecule, the ΔH on MdxE [1] (ITC, 55 °C, ND = not detected) was -13.94 kcal/mol. Further, on MdxE [2], the “Ho (protein surface hydrophobicity, slope of RFU versus MdxE concentration)” value is given as 27.3 ^c.
